Consider nine molecules from BindingDB's records for doi:10.1021/jm970682+ (University of Louvain, 1998).

The first assay can be described thus: The compound was tested for the affinity on sigma 1 receptor using [3H]- pentazocine as radioligand.
In general, Ki refers to a dissociation constant, usually derived from enzyme kinetics or from competition with a known ligand. A higher Ki goes with a looser hold on the target. Take `CCCCC(=O)c1ccc2c(c1)sc(=O)n2CCN(C)C` [3-(2-Dimethylamino-ethyl)-6-pentanoyl-3H-benzothiazol-2-one]: the Ki stood at 628 nM.

For the molecule `CCC(=O)c1ccc2c(c1)oc(=O)n2CCN1CCCCC1` [3-(2-Piperidin-1-yl-ethyl)-6-propionyl-3H-benzooxazol-2-one], the Ki is 72 nM. `CCC(=O)c1ccc2c(c1)sc(=O)n2CCN1CCCCC1` [3-(2-Piperidin-1-yl-ethyl)-6-propionyl-3H-benzothiazol-2-one] displayed a Ki of 47 nM.

For `CCCc1ccc2c(c1)sc(=O)n2CCN1CCCCC1` [3-(2-Piperidin-1-yl-ethyl)-6-propyl-3H-benzothiazol-2-one], the Ki turned out to be 0.6 nM. `CN(C)CCn1c(=O)oc2cc(C(=O)c3ccccc3)ccc21` [6-Benzoyl-3-(2-dimethylamino-ethyl)-3H-benzooxazol-2-one] showed a Ki of 365 nM. On the same count and under the same terms, the value for `O=C(c1ccccc1)c1ccc2c(c1)sc(=O)n2CCN1CCCC1` [6-Benzoyl-3-(2-pyrrolidin-1-yl-ethyl)-3H-benzothiazol-2-one] was 54 nM; that for `O=c1oc2cc(Cc3ccccc3)ccc2n1CCN1CCOCC1` [6-Benzyl-3-(2-morpholin-4-yl-ethyl)-3H-benzooxazol-2-one] was 72 nM. Consider `CCC(=O)c1ccc2c(c1)sc(=O)n2CCN1CCCC1` [6-Propionyl-3-(2-pyrrolidin-1-yl-ethyl)-3H-benzothiazol-2-one], for which the Ki was 571 nM. Compared with the last molecule, the Ki is about 7.9-fold higher.

Assay in a further assay: as above
The source holds these as a separate data set.
The molecule `CCC(=O)c1ccc2c(c1)sc(=O)n2C(=O)CC` [3,6-Dipropionyl-3H-benzothiazol-2-one] yielded a Ki of 63 nM.
